Results published in patent publication US20110217241A1, “CONJUGATES OF 19F MR IMAGING TRACERS FOR USE IN MULTI-CHROMIC MRI IMAGING” (University of Maryland, Baltimore, priority 2008, published 2011).

Assays:
[1] = 19F resonance frequency (chemical shift) with different metal ions; type: physicochemical; conditions: FIG. 6
Text: In FIG. 6, the darker bars indicate paramagnetic ion complexes and the lighter bars indicate diamagnetic complexes. As shown in the graph of FIG. 6, the different metal ions led to different ^19F resonance frequencies, ranging from δ(^19FIT-Bi^3+)=−71.17 ppm to δ(^19FIT-Tb^3+)=−63.32 ppm. In each case, there was a single ^19F signal.

[2] = 19F relaxation times (T1, T2) under different solution conditions; type: physicochemical; conditions: for Relaxation Times T1 / Relaxation Times T2 / T1 percentage relative to T1 under Condition 1 / T2 percentage relative to T2 under Condition 1: pH 7, 50 mM; for Relaxation Times T1 / Relaxation Times T2 / pH dependency of 19F relaxation times T1 and T2: 11.7 Tesla; for pH dependency of 19F relaxation times T1 and T2: pH 6, 7 & 8
Procedure: The ^19F T1 and T2 were determined under different solution conditions for the paramagnetic ^19FIT-Gd^3+ and for the diamagnetic ^19FIT-Y^3+ from the above example (and shown in FIG. 6). The conditions and results are summarized below in Table 1. The percentage numbers for Conditions 2-5 were calculated relative to T1 or T2 under Condition 1. […] For example, the weakly paramagnetic O2 had little effect on the ^19F T1 and T2 of ^19FIT-Gd^3+.
19F T1 and T2 were also determined for ^19FIT-Gd^3+ and ^19FIT-Y^3+ at different pH values (pH 6 7 & 8). […] The NMR field strength for the testing was 11.7 Tesla.

[3] = Condition 1: PBS buffer saturated with N2, 25° C.
[4] = Condition 2: PBS buffer saturated with O2, 25° C.
[5] = Condition 3: PBS buffer saturated with N2, 45° C.
[6] = Condition 4: Human sera with 10% D2O saturated with N2, 25° C.
[7] = Condition 5: 10% w/v bovine serum albumin in PBS buffer saturated with N2, 25° C.

SMILES | 19F resonance frequency δ [1] [ppm] | Relaxation Times T1 [2, 3] [ms] | Relaxation Times T2 [2, 3] [ms] | T1 percentage relative to T1 under Condition 1 [2, 4] | T2 percentage relative to T2 under Condition 1 [2, 4] | Relaxation Times T1 [2, 4] [ms] | Relaxation Times T2 [2, 4] [ms] | T1 percentage relative to T1 under Condition 1 [2, 5] | T2 percentage relative to T2 under Condition 1 [2, 5] | Relaxation Times T1 [2, 5] [ms] | Relaxation Times T2 [2, 5] [ms] | T1 percentage relative to T1 under Condition 1 [2, 6] | T2 percentage relative to T2 under Condition 1 [2, 6] | Relaxation Times T1 [2, 6] [ms] | Relaxation Times T2 [2, 6] [ms] | T1 percentage relative to T1 under Condition 1 [2, 7] | T2 percentage relative to T2 under Condition 1 [2, 7] | Relaxation Times T1 [2, 7] [ms] | Relaxation Times T2 [2, 7] [ms] | pH dependency of 19F relaxation times T1 and T2 [2] | also measured
O=C([O-])CN1CCN(CC(=O)[O-])CCN(CC(=O)NCCOCCOCCOCCOC(C(F)(F)F)(C(F)(F)F)C(F)(F)F)CCN(CC(=O)[O-])CC1.[Bi+3] [^19FIT-Bi^3+] | −71.17 | – | – | – | – | – | – | – | – | – | – | – | – | – | – | – | – | – | – | – | –
O=C([O-])CN1CCN(CC(=O)[O-])CCN(CC(=O)NCCOCCOCCOCCOC(C(F)(F)F)(C(F)(F)F)C(F)(F)F)CCN(CC(=O)[O-])CC1.[Gd+3] [^19FIT-Gd^3+] | – | 4.24 | 1.66 | (−0.7%) | (−6.0%) | 4.27 | 1.56 | (−6.4%) | (−26.5%) | 3.97 | 1.22 | (−0.7%) | (−48.2%) | 4.27 | 0.86 | (6.6%) | (−66.9%) | 4.52 | 0.55 | neither complex showed significant pH dependency | effect of weakly paramagnetic O2 on 19F T1 and T2 ([2]; Condition 2 vs Condition 1): little effect
O=C([O-])CN1CCN(CC(=O)[O-])CCN(CC(=O)NCCOCCOCCOCCOC(C(F)(F)F)(C(F)(F)F)C(F)(F)F)CCN(CC(=O)[O-])CC1.[Tb+3] [^19FIT-Tb^3+] | −63.32 | – | – | – | – | – | – | – | – | – | – | – | – | – | – | – | – | – | – | – | –
O=C([O-])CN1CCN(CC(=O)[O-])CCN(CC(=O)NCCOCCOCCOCCOC(C(F)(F)F)(C(F)(F)F)C(F)(F)F)CCN(CC(=O)[O-])CC1.[Y+3] [^19FIT-Y^3+] | – | 1498 | 1057 | (−28.3%) | (−37.1%) | 1074 | 665 | (42.4%) | (43.0%) | 2133 | 1511 | (−19.2%) | (−79.8%) | 1211 | 214 | (−19.9%) | (−86.8%) | 1200 | 139 | neither complex showed significant pH dependency | –
